Test results from patent US20240174690A1, “ANNULATED 2-AMINO-3-CYANO THIOPHENES AND DERIVATIVES FOR THE TREATMENT OF CANCER” (BOEHRINGER INGELHEIM INTERNATIONAL GMBH, priority 2021, published 2024).

Assays:
[1] = target: KRAS (G12C)::SOS1 (Homo sapiens (Human), UniProt P01116, C118S/C51S/C80L/G12C); assay: KRAS::SOS1 AlphaScreen binding assay, KRAS G12C
From the text: (§1) This assay can be used to examine the potency with which compounds according to the invention binding to (mutated) KRAS inhibit the protein-protein interaction between SOS1 and (mutated) KRAS e.g., KRAS WT, KRAS G12C, KRAS G12D, KRAS G12V, KRAS G13D. […] Low IC50 values in this assay setting are indicative of strong inhibition of protein-protein interaction between SOS1 and KRAS:
(§2) These assays measure the inhibitory effect of compounds on KRAS mutant protein-protein interactions using the Alpha Screen technology by Perkin Elmer.
(§3) The following (mutant) enzyme forms of KRAS and interacting proteins are used in these assays at the given concentrations: • KRAS (G12D) 1-169, N-terminal 6His-tag, C-terminal avi-tag (Xtal BioStructures, Inc.); final assay concentration 10 nM and SOS1 564-1049, N-terminal 229 GST-tag, TEV cleavage site (Viva Biotech Ltd); final assay concentration 5 nM; • KRAS (G12C) 1-169, N-terminal 6His-tag for purification, cleaved off, C-terminal avi-tag, biotinylated, mutations: C51S, C80L, C118S (in house); final assay concentration 7.5 nM and SOS1 564-1049, N-terminal 229 GST-tag, TEV cleavage site (Viva Biotech Ltd); final assay concentration 5 nM; • KRAS (G12V) 1-169, N-terminal 6His-tag for purification, cleaved off, C-terminal avi-tag, biotinylated, TEV cleavage site, mutation: C118S, GDP loaded (in house); final assay concentration 10 nM and SOS1 564-1049, N-terminal 229 GST-tag, TEV cleavage site (Viva Biotech Ltd); final assay concentration 10 nM; • KRAS (G13D) 1-169, N-terminal 6His-tag for purification, cleaved off, C-terminal avi-tag, biotinylated, TEV cleavage site, mutation: C118S, GDP loaded (in house); final assay concentration 10 nM and SOS1 564-1049, N-terminal 229 GST-tag, TEV cleavage site (Viva Biotech Ltd); final assay concentration 10 nM; • KRAS (WT) 1-169, N-terminal 6His-tag for purification, cleaved off, C-terminal avi-tag, biotinylated, TEV cleavage site, mutation: C118S, GDP loaded (in house); final assay concentration 10 nM and SOS1 564-1049, N-terminal 229 GST-tag, TEV cleavage site (Viva Biotech Ltd); final assay concentration 10 nM.
(§4) Test compounds dissolved in DMSO are dispensed onto assay plates (Proxiplate 384 PLUS, white, PerkinElmer; 6008289) using an Access Labcyte Workstation with the Labcyte Echo 55×. For the chosen highest assay concentration of 100 μM, 150 nL of compound solution are transferred from a 10 mM DMSO compound stock solution. A series of eleven fivefold dilutions per compound are transferred to the assay plate, compound dilutions are tested in duplicates. DMSO are added as backfill to a total volume of 150 nL.
(§5) The assays run on a fully automated robotic system in a darkened room below 100 Lux. To 150 nl of compound dilution 10 μl of a mix including KRAS mutant protein, SOS1 (final assay concentrations see above) and GDP nucleotide (Sigma G7127; final assay concentration 10 μM) in assay buffer (1×PBS, 0.1% BSA, 0.05% Tween 20) are added into columns 1-24.
(§6) After 30 minutes incubation time 5 μl of Alpha Screen bead mix in assay buffer are added into columns 1-23. Bead mix consists of AlphaLISA Glutathione Acceptor Beads (PerkinElmer, Cat No AL109) and AlphaScreen Streptavidin Donor Beads (PerkinElmer Cat No 6760002) in assay buffer at a final assay concentration of 10 μg/ml each.
(§7) Plates are kept at room temperature in a darkened incubator. After an additional 60 minutes incubation time the signal is measured in a PerkinElmer Envision HTS Multilabel Reader using the AlphaScreen specs from PerkinElmer.
(§8) Each plate contains up to 16 wells of a negative control depending on the dilution procedure (platewise or serial) (DMSO instead of test compound; with KRAS mutant::SOS1 GDP mix and bead mix; column 23) and 16 wells of a positive control (DMSO instead of test compound; with KRAS mutant::SOS1 GDP mix w/o bead mix; column 24).
(§9) As internal control known inhibitors of KRAS mutant::SOS1 interaction can be measured on each compound plate. […]

[2] = test system: KRAS G12D-dependent Ba/F3 cells; assay: Ba/F3 proliferation assay, KRAS G12D; type: cell-based; conditions: Mus musculus, BaF3, 72 h, AlamarBlue
Method: Plasmids containing KRASG12 mutants (i.e. […], G12C, G12V) are obtained from GeneScript. To generate KRASG12-dependent Ba/F3 models, Ba/F3 cells are transduced with retroviruses containing vectors that harbor KRASG12 isoforms. Platinum-E cells (Cell Biolabs) are used for retrovirus packaging. Retrovirus is added to Ba/F3 cells. To ensure infection, 4 μg/mL polybrene is added and cells are spinfected. […] Cells with an infection efficiency of 10% to 20% are further cultivated and puromycin selection with 1 μg/mL is initiated. As a control, parental Ba/F3 cells are used to show selection status. Selection is considered successful when parental Ba/F3 cells cultures died. To evaluate the transforming potential of KRASG12 mutations, the growth medium is no longer supplemented with IL-3. Ba/F3 cells harboring the empty vector are used as a control. Approximately ten days before conducting the experiments, puromycin is left out.
Compounds are added using an Access Labcyte Workstation with a Labcyte Echo 550 or 555 accoustic dispenser. All treatments are performed in technical duplicates. […] AlamarBlue™ (ThermoFisher), a viability stain, is added and fluorescence measured in the PerkinElmer Envision HTS Multilabel Reader. The raw data are imported into and analyzed with the Boehringer Ingelheim proprietary software MegaLab (curve fitting based on the program PRISM, GraphPad Inc.).

[3] = target: KRAS (G12D)::SOS1 (Homo sapiens (Human), UniProt P01116, G12D); assay: KRAS::SOS1 AlphaScreen binding assay, KRAS G12D
Sequence of KRAS (G12D)::SOS1 (P01116 other isoform, or with tags, fused parts or gaps G12D): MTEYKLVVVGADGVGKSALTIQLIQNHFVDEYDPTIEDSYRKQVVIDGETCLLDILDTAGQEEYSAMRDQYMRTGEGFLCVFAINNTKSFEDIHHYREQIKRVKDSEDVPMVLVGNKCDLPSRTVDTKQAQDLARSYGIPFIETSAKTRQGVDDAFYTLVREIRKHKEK
From the text: as §1, §2, §3, §4, §5, §6, §7, §8, §9

Sequence of KRAS (G12C)::SOS1 (P01116 other isoform, or with tags, fused parts or gaps G12C/C51S/C80L/C118S): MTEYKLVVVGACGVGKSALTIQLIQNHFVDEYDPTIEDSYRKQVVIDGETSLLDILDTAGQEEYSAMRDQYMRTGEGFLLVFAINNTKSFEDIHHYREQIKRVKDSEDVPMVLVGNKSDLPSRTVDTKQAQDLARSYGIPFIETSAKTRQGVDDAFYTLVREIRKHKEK

Row | IC50 [1] | IC50 [2] | IC50 [3] | SMILES
1 | 2 nM | 35 nM | 2 nM | C[C@H](Oc1cc(N2CCC[C@@H](O)C2)nc(-c2noc3c2CCC[C@@]32CCCc3sc(N)c(C#N)c32)n1)[C@@H]1CCCN1C [II-59]
2 | 2 nM | 55 nM | 3 nM | C[C@H](Oc1cc(N2CCOC3(CC3)C2)nc(-c2noc3c2CCC[C@@]32CCCc3sc(N)c(C#N)c32)n1)[C@@H]1CCCN1C [II-61]
3 | 3 nM | 39 nM | 7 nM | CO[C@@H]1C[C@@H]([C@H](C)Oc2cc(-c3cnn(C)n3)nc(-c3noc4c3CCC[C@@]43CCCc4sc(N)c(C#N)c43)n2)N(C)C1 [II-62]
4 | 3 nM | 266 nM | 12 nM | C[C@H](Oc1cc(N2Cc3cnn(C)c3C2)nc(-c2noc3c2CCC[C@@]32CCCc3sc(N)c(C#N)c32)n1)[C@@H]1CCCN1C [II-63]
5 | 2 nM | 11 nM | 1 nM | C[C@H](Oc1cc(N2CCNC2=O)nc(-c2noc3c2CCC[C@@]32CCCc3sc(N)c(C#N)c32)n1)[C@@H]1CCCN1C [II-64]
6 | 4 nM | 122 nM | 9 nM | C[C@H](Oc1cc(-n2cnc3cccnc32)nc(-c2noc3c2CCC[C@@]32CCCc3sc(N)c(C#N)c32)n1)[C@@H]1CCCN1C [II-65]
7 | 2 nM | 71 nM | 1 nM | C[C@H](Oc1cc(N2CC[C@@H](O)C2)nc(-c2noc3c2CCC[C@@]32CCCc3sc(N)c(C#N)c32)n1)[C@@H]1CCCN1C [II-66]
8 | 2 nM | 38 nM | 3 nM | C[C@H](Oc1cc(C2=CCOCC2)nc(-c2noc3c2CCC[C@@]32CCCc3sc(N)c(C#N)c32)n1)[C@@H]1CCCN1C [II-67]
9 | 2 nM | 77 nM | 9 nM | Cc1cn(C)nc1-c1cc(O[C@@H](C)[C@@H]2CCCN2C)nc(-c2noc3c2CCC[C@@]32CCCc3sc(N)c(C#N)c32)n1 [II-68]
10 | 2 nM | 26 nM | 2 nM | C[C@H](Oc1cc(-n2ccnc2)nc(-c2noc3c2CCC[C@@]32CCCc3sc(N)c(C#N)c32)n1)[C@@H]1CCCN1C [II-69]
11 | 2 nM | 47 nM | 2 nM | C[C@H](Oc1cc(-n2cncn2)nc(-c2noc3c2CCC[C@@]32CCCc3sc(N)c(C#N)c32)n1)[C@@H]1CCCN1C [II-70]
12 | 2 nM | 41 nM | 2 nM | C[C@H](Oc1cc(-c2cc[nH]n2)nc(-c2noc3c2CCC[C@@]32CCCc3sc(N)c(C#N)c32)n1)[C@@H]1CCCN1C [II-71]
13 | 2 nM | 39 nM | 2 nM | C[C@H](Oc1cc(N2CCCC3(COC3)C2)nc(-c2noc3c2CCC[C@@]32CCCc3sc(N)c(C#N)c32)n1)[C@@H]1CCCN1C [II-72]

Second part, the molecule before the results:

Row | SMILES | IC50 [1] | IC50 [2] | IC50 [3]
14 | C[C@H](Oc1cc(N2CCNC3(CC3)C2)nc(-c2onc3c2CCC[C@@]32CCCc3sc(N)c(C#N)c32)n1)[C@@H]1CCCN1C [I-5] | 2 nM | 3 nM | 1 nM
15 | C[C@H](Oc1cc(N2C[C@H](C)N[C@@H](C)C2)nc(-c2onc3c2CCC[C@@]32CCCc3sc(N)c(C#N)c32)n1)[C@@H]1CCCN1C [I-6] | 5 nM | 14 nM | 1 nM
16 | C[C@H]1CN(C)CCCN1c1cc(N2CCN(C)CC2)nc(-c2onc3c2CCC[C@@]32CCCc3sc(N)c(C#N)c32)n1 [I-7] | 23 nM | 190 nM | 3 nM
17 | C[C@H](Oc1cc(N2C[C@H](C)NC3(CC3)C2)nc(-c2onc3c2CCC[C@@]32CCCc3sc(N)c(C#N)c32)n1)[C@@H]1CCCN1C [I-8] | 4 nM | 4 nM | 1 nM
18 | C[C@H](Oc1cc(N2CCN3CCC3C2)nc(-c2onc3c2CCC[C@@]32CCCc3sc(N)c(C#N)c32)n1)[C@@H]1CCCN1C (some centres unmarked) [I-9] | 5 nM | 92 nM | 2 nM
19 | C[C@H](Oc1cc(N2CCNCC23CCOC3)nc(-c2onc3c2CCC[C@@]32CCCc3sc(N)c(C#N)c32)n1)[C@@H]1CCCN1C (some centres unmarked) [I-10] | 3 nM | 9 nM | 1 nM
20 | C[C@H](Oc1cc(N2CC[C@H](N(C)C)C2)nc(-c2onc3c2CCC[C@@]32CCCc3sc(N)c(C#N)c32)n1)[C@@H]1CCCN1C [I-11] | 7 nM | 24 nM | 1 nM
21 | C[C@H](Oc1cc(N2CC[C@H](N(C)C)C2)nc(-c2noc3c2CCC[C@@]32CCCc3sc(N)c(C#N)c32)n1)[C@@H]1CCCN1C [II-49] | 9 nM | 16 nM | 1 nM
22 | C[C@H](Oc1cc(N2CCNC[C@]23CCOC3)nc(-c2noc3c2CCC[C@@]32CCCc3sc(N)c(C#N)c32)n1)[C@@H]1CCCN1C [II-50] | 2 nM | 7 nM | 1 nM
23 | C[C@H](Oc1cc(N2CCNC[C@@]23CCOC3)nc(-c2noc3c2CCC[C@@]32CCCc3sc(N)c(C#N)c32)n1)[C@@H]1CCCN1C [II-51] | 4 nM | 37 nM | 1 nM
24 | C[C@H](Oc1cc(-n2cc3c(n2)CCNC3)nc(-c2noc3c2CCC[C@@]32CCCc3sc(N)c(C#N)c32)n1)[C@@H]1CCCN1C [II-53] |  | 57 nM | 1 nM
25 | C[C@H](Oc1cc(N2CCNC3(CC3)C2)nc(-c2noc3c2CCC[C@@]32CCCc3sc(N)c(C#N)c32)n1)[C@@H]1CCCN1C [II-54] | 2 nM | 1 nM | 1 nM
26 | C[C@H](Oc1cc(N2CCN(C)CC2)nc(-c2noc3c2CCC[C@@]32CCCc3sc(N)c(C#N)c32)n1)[C@@H]1CCCN1C [II-55] | 4 nM | 63 nM | 1 nM
27 | C[C@H](Oc1cc(N2C[C@H](C)N[C@@H](C)C2)nc(-c2noc3c2CCC[C@@]32CCCc3sc(N)c(C#N)c32)n1)[C@@H]1CCCN1C [II-56] | 2 nM | 20 nM | 1 nM
28 | C[C@H](Oc1cc(N2CCC[C@H](O)C2)nc(-c2noc3c2CCC[C@@]32CCCc3sc(N)c(C#N)c32)n1)[C@@H]1CCCN1C [II-57] | 2 nM | 40 nM | 2 nM
29 | CO[C@@H]1C[C@@H]([C@H](C)Oc2cc(-n3ccnc3)nc(-c3noc4c3CCC[C@@]43CCCc4sc(N)c(C#N)c43)n2)N(C)C1 [II-58] | 2 nM | 45 nM | 3 nM
